Laboratory results as given in US20200080053A1, “USE OF PEPTIDE COMPOUNDS FOR PROMOTING SURVIVAL, GROWTH AND CELL DIFFERENTIATION” (Axoltis Pharma, priority 2016, published 2020).
Square brackets hold non-standard residues; d marks the D form. Ends that are not written are not given here. Abu = CC[C@H](N)C(=O)O

How the values were obtained:
Assay type in all cases: cell-based
[1] = test system: human mesenchymal stem cells (hMSC); assay: Cell proliferation of hMSCs depending on the culture conditions; settings: for number of MSC: add-on of ATRA (from J5); for effect on cell proliferation (number of MSCs): whatever the conditions / FBS concentration (2% or 10% FBS)
Description: Adult human bone marrow mononuclear cells Ficoll-extracted from two donors were obtained from Lonza. Cells were passaged once a week. The human mesenchymal stem cells (hMSC) were selected by plastic adherence and expanded by plating 50 000 cells/cm^2 in Modified Eagle Medium Alpha (MEMalpha, MacoPharma) supplemented with 10% Fetal Bovine Serum (FBS, PAA Laboratoires) and 0.1% Penicilline/Streptomycine (P/S, Lonza). The culture medium was changed after 3 days and then every day. After 2 to 5 weeks of culture at 37° C. in a humid environment and under 5% CO2, hMSC were harvested by trypsinization. The phenotype was confirmed by FACS analysis (BD Bioscience, BD LSR II) with CD73, CD90 and CD105 (positive), as well as CD34 and CD45 (negative) (Table 1).
(§1) To investigate the neural differentiation capacity of the peptides, 25 cm^2 flasks and 12-wells culture plates were coated with sterile aqueous solutions of either NX210 or NS640 at a concentration of 80 μg/cm^2. Coatings were carried out at 37° C. and 5% CO2 over-night prior to cell plating.
On Day 0 (D0), hMSC were seeded at a concentration of 3,000 cells/cm^2 in pre-coated 25 cm^2 flasks or 12-well culture plates in complete medium and culture was placed at 37° C. in a humid environment and under 5% CO2. After 24h, medium was changed and replaced by different combinations of media containing either: MEMalpha—bFGF 12.5 ng/mL—FBS 2%—P/S 0.1%; MEMalpha—bFGF 12.5 ng/mL—FBS 10%—P/S 0.1%; MEMalpha—FBS 2%—P/S 0.1% (control condition); MEMalpha—FBS 10%—P/S 0.1% (control condition). The cells were placed at 37° C. in a humid environment and under 5% CO2, and medium was changed twice a week. […] thus was changed with: MEMalpha—ATRA […]—FBS 2%—P/S 0.1%; MEMalpha—ATRA 20 μM—FBS 10%—P/S 0.1%; MEMalpha—FBS 2%—P/S 0.1% (control condition); MEMalpha—FBS 10%—P/S 0.1% (control condition). The cells were placed at 37° C. in a humid environment and under 5% CO2. Medium was changed twice a week. On Day 15 (D15), cells were harvested by trypsinization for mRNA extraction or fixed immunocytochemical analysis.

[2] = test system: human mesenchymal stem cells (hMSC); assay: Neural differentiation of hMSCs: gene expression by real-time PCR
Protocol: as §1
On Day 0 (D0), hMSC were seeded at a concentration of 3,000 cells/cm^2 in pre-coated 25 cm^2 flasks or 12-well culture plates in complete medium and culture was placed at 37° C. in a humid environment and under 5% CO2. After 24h, medium was changed and replaced by different combinations of media containing either: MEMalpha—bFGF 12.5 ng/mL—FBS 2%—P/S 0.1%; MEMalpha—bFGF 12.5 ng/mL—FBS 10%—P/S 0.1%; MEMalpha—FBS 2%—P/S 0.1% (control condition); MEMalpha—FBS 10%—P/S 0.1% (control condition). The cells were placed at 37° C. in a humid environment and under 5% CO2, and medium was changed twice a week. On Day 8, medium was replaced by medium containing ATRA in the place of bFGF and thus was changed with: MEMalpha—ATRA […]—FBS 2%—P/S 0.1%; MEMalpha—ATRA 20 μM—FBS 10%—P/S 0.1%; MEMalpha—FBS 2%—P/S 0.1% (control condition); MEMalpha—FBS 10%—P/S 0.1% (control condition). The cells were placed at 37° C. in a humid environment and under 5% CO2. Medium was changed twice a week. […]
Total RNA was extracted using RNAeasy total purification kit following instructions of the manufacturer (Qiagen). cDNA were generated using a High-Capacity cDNA Reverse Transcription kit (Applied Biosystems) as described by the manufacturer.
The expression levels of genes (GFAP, Musashi 1, Nestin, Beta3-Tubuline, MAP-2 and GAPDH) were analyzed by real-time PCR using TaqMan gene Expression Master Mix (Applied Biosystems) on the Applied Biosystems 7900 Real time PCR system (Life technologies). Samples were analyzed in triplicates. Data were normalized using the GAPDH gene as an internal control and relative quantification (RQ) of the genes in a sample was determined according to the equation 2^−Δct.

[3] = test system: human mesenchymal stem cells (hMSC); assay: Neural differentiation of hMSCs: immunocytochemical analysis (Nestin, MAP-2); settings: bFGF; for MAP-2 marker expression (immunocytochemistry staining) / Nestine marker expression (immunocytochemistry staining): 2% FBS, with or without peptide coating (FIG. 8); for Nestine expression (staining intensity): with or without peptide coating, compared to the control condition (FIG. 8)
Protocol: as §1
On Day 0 (D0), hMSC were seeded at a concentration of 3,000 cells/cm^2 in pre-coated 25 cm^2 flasks or 12-well culture plates in complete medium and culture was placed at 37° C. in a humid environment and under 5% CO2. After 24h, medium was changed and replaced by different combinations of media containing either: MEMalpha—bFGF 12.5 ng/mL—FBS 2%—P/S 0.1%; MEMalpha—bFGF 12.5 ng/mL—FBS 10%—P/S 0.1%; MEMalpha—FBS 2%—P/S 0.1% (control condition); MEMalpha—FBS 10%—P/S 0.1% (control condition). The cells were placed at 37° C. in a humid environment and under 5% CO2, and medium was changed twice a week. On Day 8, medium was replaced by medium containing ATRA in the place of bFGF and thus was changed with: MEMalpha—ATRA […]—FBS 2%—P/S 0.1%; MEMalpha—ATRA 20 μM—FBS 10%—P/S 0.1%; MEMalpha—FBS 2%—P/S 0.1% (control condition); MEMalpha—FBS 10%—P/S 0.1% (control condition). The cells were placed at 37° C. in a humid environment and under 5% CO2. Medium was changed twice a week. On Day 15 (D15), cells were harvested by trypsinization for mRNA extraction or fixed immunocytochemical analysis.
Assessment of differentiation was performed by gene expression after extraction of mRNA at various time point (DO, D1, D8 and D15), and immunocytochemical analysis performed at the end of the culture period (D15).
Immunocytochemical analyses were carried out on cells fixed in 4% paraformaldehyde and using standard protocols. After blocking with Triton 1×0.1%/BSA 5% during 30 min, cells were incubated with antibodies directed against Nestin (Millipore) or MAP-2 (Sigma) overnight at +4° C. After washing, appropriate FITC or Cyandidine-5 labelled secondary antibody are added. Nuclei were counterstained with Hoescht 33258 (Sigma). Obervations were performed using Leica TCS LSI system.

[4] = patient no 1, bFGF 10% without ATRA (FIG. 6)
[5] = patient no 1, bFGF 10% without ATRA, with respect to J0 (FIG. 6)
[6] = patient no 1, day 5, bFGF 10% without ATRA (FIG. 6)
[7] = patient no 2, bFGF 10% without ATRA (FIG. 7)
[8] = patient no 2, bFGF 10% without ATRA, with respect to J0 (FIG. 7)

Molecule: CC1=C(/C=C/C(C)=C/C=C/C(C)=C/C(=O)O)C(C)(C)CCC1 [ATRA, reference compound]
- number of MSC ([1]; 2% FBS): small difference
- number of MSC ([1]; 10% FBS): decrease

Molecule: bFGF: growth factor added to the hMSC culture medium at 12.5 ng/mL
- effect on cell proliferation (number of MSCs) [1]: positive effect
- Induction of gene expression: MAP-2 P2 ([2]; 2% FBS, Patient no2): 3
- Musashi-1 expression [2, 4]: decrease
- Nestin expression [2, 4]: decrease
- expression of MAP-2 [2, 5]: 2.3 ×
- expression of βIII Tubulin [2, 5]: 9.3 ×
- Nestin expression [2, 6]: 0.6 ×
- MAP-2 expression ([2]; patient no 2, D5, with bFGF (FIG. 7)): decreased
- Musashi-1 expression [2, 7]: decrease
- Nestin expression [2, 7]: decrease
- Nestin expression ([2]; patient no 2, bFGF 10% without ATRA, with or without coating (FIG. 7)): 0.6 ×
- expression of MAP-2 [2, 8]: 2.3 ×
- expression of βIII Tubulin [2, 8]: 9.3 ×
- MAP-2 marker expression (immunocytochemistry staining) [3]: increases the expression
- Nestine marker expression (immunocytochemistry staining) [3]: increases the expression
- Nestine expression (staining intensity) ([3]; 10% FBS): increases Nestine expression

Molecule: W-S-G-W-S-S-Abu-S-R-S-Nm (WSGWSS[Abu]SRS-NH2; N-terminus assumed; SMILES CC[C@H](NC(=O)[C@H](CO)NC(=O)[C@H](CO)NC(=O)[C@H](Cc1c[nH]c2ccccc12)NC(=O)CNC(=O)[C@H](CO)NC(=O)[C@@H](N)Cc1c[nH]c2ccccc12)C(=O)N[C@@H](CO)C(=O)N[C@@H](CCCNC(=N)N)C(=O)N[C@@H](CO)C(N)=O) [NS640]
- effect on cell proliferation (number of MSCs) [1]: no effect
- effect of peptide coating on the increase in Nestin, βIII-Tubulin and MAP-2 gene expression ([2]; bFGF then ATRA, 2% FBS, peptide coating 80 μg/cm2): does not modify this increase
- MAP-2 expression ([2]; bFGF then ATRA, 10% FBS, peptide coating, vs ×0.75 without peptide (FIG. 5)): 1.46 ×
- Nestin expression ([2]; bFGF then ATRA, 10% FBS, peptide coating, vs ×1.2 without peptide (FIG. 5)): 1.5 ×
- Nestin expression [2, 6]: 2 ×
- βIII-Tubuline expression ([2]; patient no 2, after 5 days of culture, with bFGF (FIG. 7)): maximized
- MAP-2 marker expression (immunocytochemistry staining) [3]: stronger staining
- Nestine marker expression (immunocytochemistry staining) [3]: stronger staining
- MAP-2 protein presence ([3]; 10% FBS, peptide coating (FIG. 8)): makes possible to observe MAP-2 protein presence
- Nestine expression (staining intensity) ([3]; 10% FBS): maximized
